Measured values taken from ChEMBL document CHEMBL3865829 (Eur J Med Chem, 2016).
≈ marks a conversion by molar mass, not a printed value.

Assays:
[1] = Antitumor activity against human A549 cells xenografted in BALB/c nude mouse assessed as tumor growth inhibition at 3 mg/kg, ig administered via oral gavage once daily for 9 consecutive days followed by subsequent dosing on days 13 and 14 measured on day 30 relative to control; type: functional; details: 720 h, read-out: TGI
[2] = Cytotoxicity against human A549 cells after 72 hrs by MTT assay; type: functional, cell-based; details: A549, 72 h
[3] = Cytotoxicity against human U87MG cells after 72 hrs by MTT assay; type: functional, cell-based, U-87MG ATCC; details: U-87 MG
[4] = Aqueous solubility of the compound in pH 1 simulated gastric fluid; type: ADME
[5] = Antitumor activity against human A549 cells xenografted in BALB/c nude mouse assessed as tumor volume at 3 mg/kg, ig administered via oral gavage once daily for 9 consecutive days followed by subsequent dosing on day 13 and 14 measured on day 15 (reference value: 2071.51 +/- 682.84 mm3); type: functional
[6] = Antitumor activity against human A549 cells xenografted in BALB/c nude mouse assessed as tumor volume at 3 mg/kg, ig administered via oral gavage once daily for 9 consecutive days followed by subsequent dosing on day 13 and 14 measured on day 18 (reference value: 3045.91 +/- 854.27 mm3); type: functional
[7] = test system: Mus musculus; assay: Toxicity in nude BALB/c mouse xenografted with human A549 cells assessed as body weight at 3 mg/kg, ig administered via oral gavage once daily for 9 consecutive days followed by subsequent dosing on day 13 and 14 measured on day 1 (reference value: 24.38 +/- 0.76 g); type: organism-based; details: in vivo
[8] = test system: Mus musculus; assay: Toxicity in nude BALB/c mouse xenografted with human A549 cells assessed as body weight at 3 mg/kg, ig administered via oral gavage once daily for 9 consecutive days followed by subsequent dosing on day 13 and 14 measured on day 4 (reference value: 24.77 +/- 0.93 g); type: organism-based; details: in vivo
[9] = test system: Mus musculus; assay: Toxicity in nude BALB/c mouse xenografted with human A549 cells assessed as body weight at 3 mg/kg, ig administered via oral gavage once daily for 9 consecutive days followed by subsequent dosing on day 13 and 14 measured on day 8 (reference value: 25.66 +/- 1.04 g); type: organism-based; details: in vivo
[10] = test system: Mus musculus; assay: Toxicity in nude BALB/c mouse xenografted with human A549 cells assessed as body weight at 3 mg/kg, ig administered via oral gavage once daily for 9 consecutive days followed by subsequent dosing on day 13 and 14 measured on day 11 (reference value: 26.11 +/- 1.06 g); type: organism-based; details: in vivo
[11] = test system: Mus musculus; assay: Toxicity in nude BALB/c mouse xenografted with human A549 cells assessed as body weight at 3 mg/kg, ig administered via oral gavage once daily for 9 consecutive days followed by subsequent dosing on day 13 and 14 measured on day 15 (reference value: 27.12 +/- 1.43 g); type: organism-based; details: in vivo
[12] = test system: Mus musculus; assay: Toxicity in nude BALB/c mouse xenografted with human A549 cells assessed as body weight at 3 mg/kg, ig administered via oral gavage once daily for 9 consecutive days followed by subsequent dosing on day 13 and 14 measured on day 18 (reference value: 27.75 +/- 1.41 g); type: organism-based; details: in vivo
[13] = Antitumor activity against human A549 cells xenografted in BALB/c nude mouse assessed as tumor volume at 3 mg/kg, ig administered via oral gavage once daily for 9 consecutive days followed by subsequent dosing on day 13 and 14 measured on day 1 (reference value: 156.87 +/- 22.32 mm3); type: functional
[14] = Antitumor activity against human A549 cells xenografted in BALB/c nude mouse assessed as tumor volume at 3 mg/kg, ig administered via oral gavage once daily for 9 consecutive days followed by subsequent dosing on day 13 and 14 measured on day 4 (reference value: 419.55 +/- 104.72 mm3); type: functional
[15] = Antitumor activity against human A549 cells xenografted in BALB/c nude mouse assessed as tumor volume at 3 mg/kg, ig administered via oral gavage once daily for 9 consecutive days followed by subsequent dosing on day 13 and 14 measured on day 8 (reference value: 840.07 +/- 205.19 mm3); type: functional
[16] = Antitumor activity against human A549 cells xenografted in BALB/c nude mouse assessed as tumor volume at 3 mg/kg, ig administered via oral gavage once daily for 9 consecutive days followed by subsequent dosing on day 13 and 14 measured on day 11 (reference value: 1327.66 +/- 404.92 mm3); type: functional
[17] = cells; details: Homo sapiens, HCT-116, 72 h
[18] = Antitumor activity against human Bel7404 cells xenografted in BALB/c nude mouse assessed as tumor volume at 50 mg/kg, ig administered via oral gavage once daily for 14 consecutive days measured on day 1 (reference value: 101.62 +/- 26.48 mm3); type: functional, BEL-7404
[19] = Antitumor activity against human Bel7404 cells xenografted in BALB/c nude mouse assessed as tumor volume at 50 mg/kg, ig administered via oral gavage once daily for 14 consecutive days measured on day 3 (reference value: 176.17 +/- 57.63 mm3); type: functional, BEL-7404
[20] = Antitumor activity against human Bel7404 cells xenografted in BALB/c nude mouse assessed as tumor volume at 50 mg/kg, ig administered via oral gavage once daily for 14 consecutive days measured on day 7 (reference value: 284.68 +/- 74.36 mm3); type: functional, BEL-7404
[21] = Antitumor activity against human Bel7404 cells xenografted in BALB/c nude mouse assessed as tumor volume at 50 mg/kg, ig administered via oral gavage once daily for 14 consecutive days measured on day 10 (reference value: 425.92 +/- 102.32 mm3); type: functional, BEL-7404
[22] = Antitumor activity against human Bel7404 cells xenografted in BALB/c nude mouse assessed as tumor volume at 50 mg/kg, ig administered via oral gavage once daily for 14 consecutive days measured on day 14 (reference value: 589.54 +/- 162.22 mm3); type: functional, BEL-7404
[23] = Antitumor activity against human Bel7404 cells xenografted in BALB/c nude mouse assessed as tumor volume at 50 mg/kg, ig administered via oral gavage once daily for 14 consecutive days measured on day 17 (reference value: 747.40 +/- 169.75 mm3); type: functional, BEL-7404
[24] = Antitumor activity against human Bel7404 cells xenografted in BALB/c nude mouse assessed as tumor growth inhibition at 50 mg/kg, ig administered via oral gavage once daily for 14 consecutive days measured on day 29; type: functional; details: BEL-7404, po, 696 h, read-out: TGI

`COc1ncc(-c2ccc3nccc(-c4ccnnc4)c3c2)cc1NS(=O)(=O)c1ccc(F)cc1F` [OMIPALISIB] showed an inhibition in vivo at 3 mg/kg [1] of 65.9%, an IC50 [2] of 0.14 µM and an IC50 [3] of 0.537 µM. For the same compound, the solubility [4] was 0.2 mg/mL (≈ 396 µM), the Activity [5] was 669.43 mm3 and the Activity [6] was 968.24 mm3. For the same compound, the Activity [7] was 24.7 g, the Activity [8] was 24.55 g and the Activity [9] was 22.98 g. The Activity [10] was 21.63 g, the Activity [11] was 20.92 g and the Activity [12] was 22.22 g. For the same compound, the Activity [13] was 146.36 mm3, the Activity [14] was 261.5 mm3 and the Activity [15] was 396.45 mm3. For the same compound, the Activity [16] was 520.69 mm3 and the IC50 [17] was 0.154 µM.
In the case of `CNC(=O)c1cc(Oc2ccc(NC(=O)Nc3ccc(Cl)c(C(F)(F)F)c3)cc2)ccn1` [SORAFENIB], the Activity [18] is reported as 97.11 mm3, the Activity [19] is reported as 136.23 mm3 and the Activity [20] is reported as 206.94 mm3. It also gave an Activity [21] of 257.88 mm3, an Activity [22] of 334.93 mm3 and an Activity [23] of 413.79 mm3. It also gave an inhibition in vivo at 50 mg/kg [24] of 43.8%.
